Measurements published in ChEMBL document CHEMBL1128659, “Tetramic acids as novel glycine site antagonists” (Bioorg Med Chem Lett, 1995).

What was measured:
[1] = biological target: Glutamate receptor ionotropic, NMDA 1 (Rattus norvegicus, UniProt P35439); assay: Inhibition of binding affinity of [3H]L-689,560 to the strychnine insensitive glycine site on rat brain membranes; type: cell membranes, Membrane
[2] = organism: Rattus norvegicus; assay: Inhibition of N-Methyl-D-aspartate (NMDA)-induced depolarizations in rat cortical slices; type: functional
[3] = pKa value was measured; type: physicochemical
[4] = biological target: Glutamate receptor ionotropic, NMDA 1 (Rattus norvegicus) (UniProt P35439); assay: Inhibition of binding affinity of [3H]L-689,560 to the strychnine insensitive glycine site on rat brain membranes at a concentration of 100 uM; type: cell membranes; details: Membrane

Compound | IC50 [1] | pKa [3] | inhibition [4] | Kb [2]
CC/C=C1/NC(=O)C(c2cccc(Oc3ccccc3)c2)=C1O | 0.7 µM | – | – | 6.15 µM
CC/C=C1/NC(=O)C(c2ccccc2)=C1O | 45.5 µM | 4.6 | – | 115 µM
O=C1C=C(O)CN1 | – | 6.4 | – | –
CCC/C=C1\NC(=O)C(c2ccccc2)=C1O | 15.7 µM | – | – | 154 µM
O=c1cc(O)c2ccc(Cl)cc2[nH]1 | – | 5.8 | – | –

Further lines, with some results ahead:

IC50 [1] | pKa [3] | inhibition [4] | Compound | Kb [2]
3 µM | – | – | C=C(C)COc1cccc(C2=C(O)/C(=C\CC)NC2=O)c1 | 15.8 µM
24.2 µM | – | – | O=C1N/C(=C\c2ccccc2)C(O)=C1c1ccccc1 | –
9.5 µM | – | – | O=C1N/C(=C\C2CC2)C(O)=C1c1ccccc1 | –
– | – | 18% | O=C1N/C(=C/C2CC2)C(O)=C1c1ccccc1 | –
